# Experimental data reported in ChEMBL document CHEMBL5532675, “Discovery of 4-Ethoxy-6-chloro-5-azaindazoles as Novel PDE4 Inhibitors for the Treatment of Alcohol Use Disorder and Alcoholic Liver Diseases” (J Med Chem, 2024).
# The source made the active and inactive calls. No cut-off for these calls is given here.
# Columns and labels:
# [1] = system: Mus musculus; experiment: Protection against alcohol-induced motor impairment in C57BL/6J mouse model assessed as short recovery time by measuring latency to falling off at 1 mg/kg, po preadministered with compound every 24 hrs for 3 times followed by alcohol administration 30 mins post last dose and further treated with compound for 3 days followed by alcohol administration 30 mins post last dose and measured at 2 to 20 mins by rotarod test; format: functional, organism-based; conditions: time 8702-8720 min
# [2] = system: Mus musculus; experiment: Protection against alcoholic liver disease in NIAAA C57BL/6J mouse model assessed as reduction in serum IL1-beta level at 1 to 2.5 mg/kg, po preadministered with 1 to 4 % of alcohol for 10 days with subsequent compound addition from day 6 to 11 and further administered with 31.25 % alcohol on day 11 and measured after 9 hrs by ELISA; format: functional, organism-based; conditions: dose 1-2.5 mg/kg, time 5.0 day
smiles,measurement,setting,value
CCOc1nc(Cl)cc2c1cnn2CCCC(=O)O,Activity,[1],inactive
same,Activity,[2],Active
